Results: PubChem BioAssay (NCI)
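A five-concentration, 48-hour dose response in 96-well plates underlies each endpoint, interpolated linearly between surrounding concentrations. GI50: concentration for 50% inhibition of growth. Definition used: TGI = concentration required for complete inhibition of growth.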

Key:
Assay in all cases: NCI-60 cell line screen, 48 h
[1] = system: MALME-3M melanoma
[2] = system: M14 melanoma
[3] = system: SF-295 CNS
[4] = system: OVCAR-8 ovarian
[5] = system: SF-539 CNS
[6] = system: K-562 leukemia
[7] = system: PC-3 prostate
[8] = system: HOP-92 NSCLC
[9] = system: NCI-H226 lung
[10] = system: UACC-257 melanoma
[11] = system: NCI-H522 lung
[12] = system: HCT-116 colon
[13] = system: HL-60(TB) leukemia
[14] = system: HCT-15 colon
[15] = system: OVCAR-5 ovarian
[16] = system: MDA-MB-231 breast
[17] = system: RPMI-8226 leukemia
[18] = system: SNB-19 CNS
[19] = system: SK-OV-3 ovarian
[20] = system: SK-MEL-28 melanoma
[21] = system: SW-620 colon
[22] = system: SN12C renal
[23] = system: HT29 colon
[24] = system: HCC-2998 colon
[25] = system: A549 NSCLC
[26] = system: 786-0 renal
[27] = system: UO-31 renal
[28] = system: TK-10 renal
[29] = system: MCF7 breast
[30] = system: KM12 colon
[31] = system: HS 578T breast
[32] = system: MOLT-4 leukemia
[33] = system: CAKI-1 renal
[34] = system: SK-MEL-2 melanoma
[35] = system: SNB-75 CNS
[36] = system: MDA-MB-435
[37] = system: LOX IMVI melanoma
[38] = system: T-47D breast
[39] = system: UACC-62 melanoma
[40] = system: IGROV1 ovarian
[41] = system: NCI/ADR-RES ovarian
[42] = system: SK-MEL-5 melanoma
[43] = system: CCRF-CEM leukemia
[44] = system: NCI-H460 lung
[45] = system: EKVX NSCLC
[46] = system: COLO 205 colon
[47] = system: U251 CNS
[48] = system: DU-145 prostate
[49] = system: OVCAR-4 ovarian
[50] = system: SF-268 CNS
[51] = system: BT-549 breast
[52] = system: ACHN renal
[53] = system: OVCAR-3 ovarian
[54] = system: A498 renal
[55] = system: HOP-62 NSCLC
[56] = system: RXF 393 renal
[57] = system: NCI-H23 lung

COc1ccc2c(c1)C(=O)c1c-2c(N2CCN(C(=O)CCNCCNCCO)CC2)nc2ccccc12
GI50 [1]: 26.6 µM | TGI [1]: 58 µM | GI50 [2]: 11.8 µM | TGI [2]: 24.1 µM | GI50 [3]: 18.8 µM | TGI [3]: 39.3 µM | GI50 [4]: 19.5 µM | TGI [4]: 48.3 µM | GI50 [5]: 14.5 µM | TGI [5]: 29.9 µM | GI50 [6]: 2.97 µM | TGI [6]: 7.34 µM | GI50 [7]: 13.2 µM | TGI [7]: 27.9 µM | GI50 [8]: 3.77 µM | TGI [8]: 18.2 µM | GI50 [9]: 22.6 µM | TGI [9]: 48.1 µM | GI50 [10]: 20.8 µM | TGI [10]: 42.1 µM | GI50 [11]: 17.5 µM | TGI [11]: 46.8 µM | GI50 [12]: 2.36 µM | TGI [12]: 5.52 µM | GI50 [13]: 10.3 µM | TGI [13]: 25.8 µM | GI50 [14]: 17.1 µM | TGI [14]: 33.9 µM | GI50 [15]: 18.3 µM | TGI [15]: 34.4 µM | GI50 [16]: 13.5 µM | TGI [16]: 30.9 µM | GI50 [17]: 11.3 µM | TGI [17]: 33.2 µM | GI50 [18]: 17.5 µM | TGI [18]: 38 µM | GI50 [19]: 15.9 µM | TGI [19]: 30.9 µM | GI50 [20]: 9.22 µM | TGI [20]: 23.4 µM | GI50 [21]: 2.26 µM | TGI [21]: 5.17 µM | GI50 [22]: 15.9 µM | TGI [22]: 31.7 µM | GI50 [23]: 4.6 µM | TGI [23]: 16.7 µM | GI50 [24]: 13.8 µM | TGI [24]: 30.1 µM | GI50 [25]: 13.2 µM | TGI [25]: 28 µM | GI50 [26]: 11.4 µM | TGI [26]: 25.6 µM | GI50 [27]: 13.9 µM | TGI [27]: 31.4 µM | GI50 [28]: 22.5 µM | TGI [28]: 43.1 µM | GI50 [29]: 7.27 µM | TGI [29]: 25.9 µM | GI50 [30]: 16.3 µM | TGI [30]: 53.1 µM | GI50 [31]: 16.1 µM | TGI [31]: 35.4 µM | GI50 [32]: 5.05 µM | TGI [32]: 22.9 µM | GI50 [33]: 24 µM | TGI [33]: 53.3 µM | GI50 [34]: 24.1 µM | TGI [34]: 52.6 µM | GI50 [35]: 18.6 µM | TGI [35]: 37.4 µM | GI50 [36]: 21.7 µM | TGI [36]: 47.8 µM | GI50 [37]: 12.3 µM | TGI [37]: 31.6 µM | GI50 [38]: 13.4 µM | TGI [38]: 29.8 µM | GI50 [39]: 21.3 µM | TGI [39]: 38.2 µM | GI50 [40]: 12.7 µM | TGI [40]: 45.2 µM | GI50 [41]: 18 µM | TGI [41]: 36.1 µM | GI50 [42]: 18 µM | TGI [42]: 33.8 µM | GI50 [43]: 5.32 µM | TGI [43]: 23.7 µM | GI50 [44]: 4.61 µM | TGI [44]: 19.6 µM | GI50 [45]: 14.5 µM | TGI [45]: 30.1 µM | GI50 [46]: 12.4 µM | TGI [46]: 29.8 µM | GI50 [47]: 15.8 µM | TGI [47]: 33.8 µM | GI50 [48]: 12.1 µM | TGI [48]: 24.5 µM | GI50 [49]: 21.2 µM | TGI [49]: 42.2 µM | GI50 [50]: 14.3 µM | TGI [50]: 36.9 µM | GI50 [51]: 7.14 µM | TGI [51]: 21.2 µM | GI50 [52]: 16 µM | TGI [52]: 30.8 µM | GI50 [53]: 20.6 µM | TGI [53]: 43.2 µM | GI50 [54]: 18.7 µM | TGI [54]: 34.4 µM

Fc1ccc(-c2nn3c(COc4ccc(Cl)cc4Cl)nnc3s2)cc1Oc1ccccc1
GI50 [1]: 17 µM | TGI [1]: 35.2 µM | GI50 [2]: 23 µM | TGI [2]: 67.2 µM | GI50 [3]: 6.2 µM | TGI [3]: 20 µM | GI50 [4]: 27.8 µM | TGI [4]: > 100 µM | GI50 [5]: 18 µM | TGI [5]: 32.3 µM | GI50 [6]: 21.2 µM | TGI [6]: > 100 µM | GI50 [7]: 8.94 µM | TGI [7]: 21.4 µM | GI50 [8]: 0.254 µM | TGI [8]: 7.93 µM | GI50 [9]: 21 µM | TGI [9]: 74 µM | GI50 [10]: 55.4 µM | TGI [10]: > 100 µM | GI50 [11]: 27 µM | TGI [11]: > 100 µM | GI50 [12]: 13.2 µM | TGI [12]: 25.9 µM | GI50 [55]: 11.5 µM | TGI [55]: 23.7 µM | GI50 [14]: 43.2 µM | TGI [14]: > 100 µM | GI50 [15]: 11.1 µM | TGI [15]: 23.7 µM | GI50 [16]: 11.6 µM | TGI [16]: 23.8 µM | GI50 [17]: 18.3 µM | TGI [17]: 39.1 µM | GI50 [18]: 13.3 µM | TGI [18]: 26.1 µM | GI50 [56]: 18.7 µM | TGI [56]: 45.9 µM | GI50 [20]: 15.8 µM | TGI [20]: 42.9 µM | GI50 [21]: 36.9 µM | TGI [21]: > 100 µM | GI50 [22]: 12.9 µM | TGI [22]: 29.6 µM | GI50 [23]: 15.9 µM | TGI [23]: 34.8 µM | GI50 [25]: 20.7 µM | TGI [25]: 62.2 µM | GI50 [26]: 14 µM | TGI [26]: 26.9 µM | GI50 [27]: 30 µM | TGI [27]: > 100 µM | GI50 [28]: 12.2 µM | TGI [28]: 25.2 µM | GI50 [29]: 67.1 µM | TGI [29]: > 100 µM | GI50 [30]: 28.9 µM | TGI [30]: 91.2 µM | GI50 [31]: 16.4 µM | TGI [31]: 47.5 µM | GI50 [32]: 7.08 µM | TGI [32]: 27.8 µM | GI50 [33]: 12.8 µM | TGI [33]: 25.4 µM | GI50 [57]: 13.6 µM | TGI [57]: 26.4 µM | GI50 [35]: 32.2 µM | TGI [35]: 91.1 µM | GI50 [36]: 16.8 µM | TGI [36]: 50.8 µM | GI50 [37]: 14.6 µM | TGI [37]: 29 µM | GI50 [38]: 11.6 µM | TGI [38]: 25.7 µM | GI50 [39]: 14.3 µM | TGI [39]: 28.9 µM | GI50 [40]: 26.2 µM | TGI [40]: 92.6 µM | GI50 [42]: 23 µM | TGI [42]: 71.2 µM | GI50 [43]: 16.8 µM | TGI [43]: 39 µM | GI50 [44]: 25.4 µM | TGI [44]: > 100 µM | GI50 [45]: 23.7 µM | TGI [45]: 67.3 µM | GI50 [46]: 19.6 µM | TGI [46]: > 100 µM | GI50 [47]: 12.9 µM | TGI [47]: 25.6 µM | GI50 [48]: 19.2 µM | TGI [48]: 42.5 µM | GI50 [49]: 24.6 µM | TGI [49]: > 100 µM | GI50 [50]: 29.8 µM | TGI [50]: 87.8 µM | GI50 [51]: 19.3 µM | TGI [51]: 43.8 µM | GI50 [52]: 14.1 µM | TGI [52]: 27.3 µM | GI50 [53]: 0.705 µM | TGI [53]: 13.3 µM | GI50 [54]: 20.2 µM | TGI [54]: 40.6 µM
